Here are results for 3 compounds from patent US12344587B2, “Synthetic retinoids for use in RAR activation” (UNIVERSITY OF DURHAM, priority 2019, dated 2025).

One data set concerns ERK1/2. The data set can be described thus: ERK1/2 phosphorylation assay, AlphaLISA SureFire Ultra (non-genomic activity). Type of data set: cell-based. Further details: Non-genomic activity (ERK½ Phosphorylation Assay) Efficacy (Emax): unit not given here. The conditions noted are these: SH-SY5Y cells; for EC50: Homo sapiens, 0.5 h, read-out: Non-genomic activity (ERK½ Phosphorylation Assay) Potency (EC50); for EC50 / Non-genomic activity (ERK½ Phosphorylation Assay) Efficacy (Emax): serum-free, 30 minutes stimulation; for Erk 1/2 phosphorylation potency/efficacy compared to retinoic acid: versus retinoic acid. Here is the method:
The non-genomic activity of synthetic retinoids was evaluated by measuring their ability to induce phosphorylation of ERK1/2 using the AlphaLISA® SureFire® Ultra ERK1/2 kit.
In this assay, SH-SY5Y cells (100,000 cells/well) were plated in 96-well plates and serum-starved in DMEM for 24 hours. Retinoids were tested at concentrations from 10−5 M to 10−11 M and at a final concentration of 0.1% DMSO in the medium. The assay was carried out on the SH-SY5Y cells in serum-free DMEM, cells were stimulated by retinoid for 30 minutes at 37° C.
At the end of the assay, the medium was removed, and cells were lysed in 50 μl of freshly prepared 1× lysis buffer (supplied in the kit). The 96-well plate was agitated on an orbital shaker (SO1, Stuart Scientific) at approximately 350 rpm for 10 minutes at room temperature.
In the meantime, the activation buffer was diluted 25-fold in the reaction buffers. Under green light in a dark room, the acceptor beads were diluted 50-fold in the freshly prepared reaction mix while the donor beads were diluted 50-fold in dilution buffer to obtain two final reaction mixtures.
10 μl of cell lysate was then transferred per well into 384-well white Proxiplates plates (PerkinElmer) and 5 μl of each prepared acceptor and donor reaction mixture was added under green light in a dark room. Plates were wrapped with aluminium foil and incubated at room temperature for at least 3 hours. Readings were taken using an Envision system (PerkinElmer Life Sciences) using the AlphaScreen® settings.
In general terms: Alpha assays give light when donor and acceptor beads are brought close together.

The test system of another data set is SH-SY5Y cells. The data set can be described thus: Induction of neurite outgrowth. Type of data set: cell-based. The conditions noted are these: 10 nM, 5 days; for fold induction at 0.01 µM: Homo sapiens, 120 h, read-out: Neurite Outgrowth Fold increase. Here is the method: SY—SY5Y cells were plated at 10,000 cells/well in 12-well plates containing acid-treated/poly-L-lysine-coated coverslips. After 24 hours, each retinoid was added to the medium at a concentration of 10 nM and the plates were incubated for 5 days. After retinoid treatment, SH-SY5Y cells on coverslips were washed twice in PBS, fixed in 4% paraformaldehyde (PFA) for 20 minutes at room temperature, and washed twice with PBS.
For immunocytochemical staining of neurites, cells on coverslips were washed three times in PBS, and incubated in blocking solution (10% donkey serum and 0.1% triton X-100 in PBS) for 1 hour at room temperature. Cells were then labelled by incubation overnight at 4° C. with β-III tubulin primary antibody (Sigma-Aldrich) diluted 1:1000 in blocking buffer. Following incubation overnight, cells were washed three times with PBS containing 0.1% Triton X-100 solution (PBST) before incubation with anti-mouse monoclonal secondary antibody (1:300 in PBST; Jackson Immunoresearch) for 2 hours at room temperature. Finally, after three washes in PBST and a final wash in PBS, the coverslips were mounted on slides and stored at 4° C.
ImageJ software with the NeuronJ plugin was used to quantify neurite outgrowth on stained cells. For each experiment, 10 different randomly selected images were taken from each cover slip using a Nikon Eclipse E400 fluorescence microscope. Each image was converted into an 8-bit image (necessary for the NeuronJ plugin) and optimised with the brightness and contrast tool in GIMP (GNU Image Manipulation Program). For each image, individual traces were drawn for each clearly-identifiable neurite using the tracing tool in the NeuronJ plugin. Neurite length was measured in pixels and transformed into the corresponding length in μm depending on the magnification used. The average neurite length for each image was calculated by dividing total neurite length by the total number of neurites per image. Ten images per cover slip were measured and the mean calculated for the coverslip overall. Coverslips were in triplicate for each retinoid and concentration.

Data set [1] is described as follows: Turbidimetric aqueous solubility. The class given is physicochemical. The conditions noted are these: aqueous buffer, kinetic from dmso stock, 0.01 M phosphate buffered saline pH 7.4, 1% DMSO, 37° C. As to the method: Test compound (10 mM in DMSO) is serially diluted to give solutions of 0.1, 0.3, 1 and 3 mM in DMSO. Each test compound concentration is then further diluted 1 in 100 in buffer (0.01 M phosphate buffered saline pH 7.4) so that the final DMSO concentration was 1% and the final test compound concentrations were 1, 3, 10, 30 and 100 μM. The experiment was performed at 37° C. and each concentration sample was incubated in 7 replicate wells. The plates were incubated for 2 hr at 37° C. before the absorbance was measured at 620 nm. The solubility of the sample was estimated from the concentration of test compound that produced an increase in absorbance above vehicle control (i.e., 1% DMSO in buffer).

Another data set has as its system MDR1. The data set can be described thus: MDCK-MDR1 permeability assay. The class given is in vitro ADME. The settings on record: dog, pH 7.4, 60 min. Here is the method:
Thus, this assay is a valuable in vitro surrogate for blood-brain permeability and CNS exposure
MDCK-MDR1 cells obtained from the NIH (Rockville, MD, USA) are used between passage numbers 6-30. Cells are seeded onto Millipore Multiscreen Transwell plates at 3.4×10^5 cells/cm^2. The cells are cultured in DMEM and media is changed on day 3. On day 4 the permeability study is performed. Cell culture and assay incubations are carried out at 37° C. in an atmosphere of 5% CO2 with a relative humidity of 95%. On the day of the assay, the monolayers are prepared by rinsing both apical and basolateral surfaces twice with Hanks Balanced Salt Solution (HBSS) at the desired pH warmed to 37° C. […] Test compound permeability is assessed in duplicate. […] Test and control compounds are quantified by LC-MS/MS cassette analysis using a 7-point calibration with appropriate dilution of the samples. The starting concentration (C0) is determined from the dosing solution and the experimental recovery calculated from C0 and both apical and basolateral compartment concentrations.
The permeability coefficient (Papp) for each compound is calculated from the following equation: […]
Where dQ/dt is the rate of permeation of the drug across the cells, C0 is the donor compartment concentration at time zero and A is the area of the cell monolayer. […] An efflux ratio (ER) is calculated from mean A-B and B-A data.

Molecules are shown by their SMILES. In brackets after ≈: the same amount, converted by molar mass. A value given as a limit tells only on which side of the number the result lay.

For `CC1(C)CCC(C)(C)c2cc(C#Cc3ccc(C(=O)O)cc3F)ccc21` [DC526, 3-Fluoro-4-[2-(5,5,8,8-tetramethyl-5,6,7,8-tetrahydronaphthalen-2-yl)ethynyl]benzoic acid], in the data set on ERK1/2, the EC50 was determined as 26.4 nM; the “Non-genomic activity (ERK½ Phosphorylation Assay) Efficacy (Emax)” value (shortened to “Non-genomic activity”) came to 50.22; the “Erk 1/2 phosphorylation potency/efficacy compared to retinoic acid” value was “higher potency and efficacy”. In addition, in the data set on SH-SY5Y cells, the “Average neurite length compared to cells treated with ATRA” value was “significantly larger average neurite length” and the fold induction at 0.01 µM stood at 2.1. Moreover, the solubility at 2 h in data set [1] came to 20 µM (≈ 7.01 µg/mL).

Consider `CC1(C)CCC(C)(C)c2cc(C#Cc3ccc(C(=O)O)nc3)ccc21` [DC528, 5-[2-(5,5,8,8-tetramethyl-5,6,7,8-tetrahydronaphthalen-2-yl)ethynyl]pyridine-2-carboxylic acid], for which, in the data set on ERK1/2, the EC50 is 14.2 nM; the “Non-genomic activity” value turned out to be 69.15; the “Erk 1/2 phosphorylation potency/efficacy compared to retinoic acid” value was “higher potency and efficacy”. Moreover, in the data set with SH-SY5Y cells, the “Average neurite length compared to cells treated with ATRA” value is “significantly larger average neurite length” and the fold induction at 0.01 µM is 2.2. In data set [1], this compound displayed a solubility at 2 h of 20 µM (≈ 6.67 µg/mL).

Turning to `CC1(C)CCC(C)(C)c2nc(C#Cc3ccc(C(=O)O)cc3)cnc21` [DC645, 4-[2-(5,5,8,8-Tetramethyl-5,6,7,8-tetrahydroquinoxalin-2-yl)ethynyl]benzoic acid], in the data set on ERK1/2, the EC50 was 8.54 nM; the “Non-genomic activity” value is reported as 91.57; the “Erk 1/2 phosphorylation potency/efficacy compared to retinoic acid” value was “higher potency and efficacy”. Moreover, in the data set on SH-SY5Y cells, the “Average neurite length compared to cells treated with ATRA” value is on record as “significantly larger average neurite length” and the fold induction at 0.01 µM came to 2.3. The same compound registered a Papp at 60 min, 10 μM with MDR1 of 34.9 ×10⁻⁶ cm/s. Besides, the efflux ratio at 60 min, 10 μM with MDR1 (from mean A-B and B-A data, read-out: ER (efflux ratio)) came to 0.6. Also, the solubility at 2 h in data set [1] is over 100 µM.

Broadly, the EC50 is the concentration at which the effect is half-maximal. The solubility is the dissolved amount per volume that the medium holds. For orientation: Papp means a coefficient for how fast a substance crosses the barrier.
